In US7572827B2, “Use of angelicin and of its structural analogues for the treatment of thalassemia” (Universita' Degli Studi Di Ferrara, priority 2002, dated 2009):

Tests used:
human cell line K562 [1] = test: Erythroid differentiation of K562 cells (benzidine-positive cells); type: cell-based; conditions: for Erythroid differentiation (%) = percentage of K562 cells that react positively to benzidine: optimal concentration of each compound (cytosine arabinoside 1 μM, bergapten 200 μM, angelicin 400 μM), six experiments, control 3-4
Protocol: (§1) The biological activity of angelicin was evaluated by examining the capacity of that compound to modulate the expression of genes for gamma-globin in the human cell line K562, which is capable of differentiating in the erythroid manner by expressing genes for gamma-globin if subjected to treatment with modifiers of the biological response that are suitable for the purpose (3, 18, 19).
(§2) The level of differentiation was evaluated by analyzing the positive reaction of the cells to benzidine (3). The production of haemoglobin was evaluated by electrophoresis on cellulose acetate and by colouring the gel with a solution based on benzidine/H2O2 (3). The expression of the genes encoding for gamma-globin was evaluated by quantitative RT-PCR (reverse transcriptase PCR) (3).

[2] = system: gamma-globin mRNA in K562 cells; test: Gamma-globin mRNA accumulation in K562 cells by quantitative RT-PCR; type: cell-based, human; conditions: K562 cells treated for 6 days, cytosine arabinoside 1 μM, bergapten 200 μM, angelicin 400 μM, control = 1
Protocol: as §1, §2

[3] = system: gamma-globin mRNA in human erythroid precursors; test: Gamma-globin mRNA accumulation in human erythroid precursors isolated from peripheral blood (Fibach two-stage culture), quantitative RT-PCR; type: cell-based; conditions: for Gamma-globin mRNA, increase compared with untreated control erythroid precursors: human erythroid precursors, angelicin 500 μM, hydroxyurea 120 μM, control = 1, quantitative RT-PCR
From the text: In order to check whether angelicin was also capable of stimulating the production of mRNA for gamma-globin in human erythroid precursors isolated from peripheral blood, the technique published by Fibach et al. (20, 21) was used. This technique provides for two stages: in the first stage, the cells isolated from peripheral blood of a subject who is healthy or suffering from a haemopoietic pathology, such as sickle cell anaemia or beta-thalassaemia, are sown in a culture medium to which 10% of conditioned medium derived from the vesicle carcinoma cell line 5637 has been added. The second stage consists in cultivating the isolated cells in a suitable culture medium, supplemented by the erythropoietin hormone, 30% bovine foetal serum, 2-mercaptoethanol, albumin, glutamine and desamethasone in order to permit the proliferation and maturing of stem cells of the erythroid type. In this stage the cells can be treated with potential HbF inducers.

human cell line K562 [4] = test: Haemoglobin production in K562 cells (cellulose acetate electrophoresis, benzidine/H2O2 staining); type: cell-based; conditions: 400 μM angelicin for 6 days
Protocol: as §2

SMILES | Erythroid differentiation (%) = percentage of K562 cells that react positively to benzidine (human cell line K562 [1]) | Gamma-globin mRNA, increase compared with untreated control K562 cells [2] | percentage of K562 cells that react positively to benzidine (human cell line K562 [1]; angelicin 400 μM, 6 days, control K562 cells 3-4%) | increase in the production of mRNA for gamma-globin compared with the same untreated cells ([3]; human erythroid precursors from peripheral blood treated with angelicin) [times] | Gamma-globin mRNA, increase compared with untreated control erythroid precursors [3] | chief haemoglobin produced (human cell line K562 [4])
COc1c2ccoc2cc2oc(=O)ccc12 [bergapten, 5-methoxypsoralen] | 50-60% | 3.48 |  |  |  | 
O=c1ccc2ccc3occc3c2o1 [angelicin] | 55-60% | 44.94 | 55-60% | 20.53 | 20.53 | Hb Portland (alpha2gamma2)
NC(=O)NO [hydroxyurea, reference compound] |  |  |  |  | 6.96 | 
Nc1ccn([C@@H]2O[C@H](CO)[C@@H](O)[C@@H]2O)c(=O)n1 [cytosine arabinoside, reference compound] | 75-80% | 3.24 |  |  |  | 
